Where “and” joins values, the source holds several entries; their conditions need not be identical. Equal entries are not always repeated.
What was measured:
[1] = tested on: Green Rice Leafhopper (Nephotettix cincticeps); assay: Test on Controlling Effects Against Green Rice Leafhopper (rice seedling dip); format: in vivo; conditions: Compound No. 1 alone 0.4 ppm; 5th or 6th day
Text: The root was wrapped with absorbent cotton wet with water, and the rice seedling was put in a test tube.

[2] = tested on: Common Cutworm (Spodoptera litura); assay: whole plant or invertebrate; conditions: Compound No. 1 alone 0.02 ppm; 5th or 6th day
Description: They were diluted to a predetermined concentration with water containing a spreader (Shin-Rinoh 0.040) and subjected to the test by themselves or as a mixed liquid.
A leaf segment of cabbage was dipped for about 10 seconds in an insecticidal solution and dried in air. A wet filter paper was laid in a petri dish having a diameter of 9 cm, and the dried leaf segment of cabbage was placed thereon. 10 Second-instar larvae of common cutworm were released therein and after putting a cover, left in a constant temperature chamber at 25° C. with lightening. On the 5th or 6th day after release, dead larvae were counted, and the mortality was calculated by the following equation. Here, the insects that were moribund were counted as dead insects. Mortality (%)={(number of dead insects)/(number of surviving insects+number of dead insects)}×100
Further, the theoretical mortality (%) can be calculated from the colby's formula.

[3] = tested on: Green Peach Aphid (Myzus persicae); assay: Test on Controlling Effects Against Green Peach Aphid (radish leaf dip); format: in vivo; conditions: third day after the dipping
Description: Japanese radish leaf (cut into about 2 cm×3 cm) was put in a test tube in which water was put, and Larvae of green peach aphid were released on the leaf. […] On the third day after the dipping, dead larvae were counted, and the mortality was calculated from the following equation. Aphids that dropped from leaf or were moribund were included in the number of dead. […] Mortality (%)=(number of dead insects/number of treated insects)×100

## CC(NC(=O)c1cc(Cl)cc(Br)c1NC(=O)c1cc(Br)nn1-c1ncccc1Cl)C1CC1 (stereo not drawn) [Compound No. 1, N-[2-bromo-4-chloro-6-[[α-methyl-(cyclopropylmethyl)amino]carbonyl]-phenyl]-3-bromo-1-(3-chloro-2-pyridyl)-1H-pyrazole-5-carboxamide]
[1]
  Mortality (%): 30% and 50%
[2]
  Mortality (%): 100% and 90% and 70% and 60% and 50%
[3]; Compound No. 1 alone 0.8 ppm
  Mortality (%): 8% and 11%
[3]; Compound No. 1 alone 1.5 ppm
  Mortality (%): 46% and 28%

From patent US10039284B2, “Pesticidal compositions” (priority 2006, dated 2018)
